From patent US20080206287A1, “Use of cyclosporin A to sensitize resistant cancer cells to death receptor ligands” (priority 2006, published 2008)

Test system: PPC-1, OVCAR-3, T47D, MDA-MB-468 and DU 145 cells
Experiment: FLIP siRNA knock-down and CH-11 killing
Type: cell-based
Conditions: PPC-1 cells transfected with FLIP siRNA
Procedure: Transfection of siRNA oligonucleotides. Double-stranded SMARTPOOL siRNA oligonucleotides targeting c-FLIP mRNA and double-stranded firefly luciferase control siRNA (Dharmacon Research, Lafayette, Colo.) (10 nM) were transfected into cells with Lipofectamine according to the manufacturer's instructions.
To test the functional importance of decreases in FLIP by 5809354, it was determined whether knocking down FLIP could recapitulate the activity of the molecule and abrogate 5809354's ability to sensitize cells to CH-11. PPC-1 cells were transfected with double stranded siRNA that targeted FLIP or luciferase as a control. At 24 hours after transfection, cells were treated with increasing concentrations of 5809354 with or without CH-11.

For `O=C(CCCOc1ccc(Cl)cc1Cl)NO` [compound 5809354, 4-(2,4-dichlorophenoxy)-N-hydroxybutanamide], the “enhancement of CH-11-mediated killing in the presence of FLIP siRNA” value was “the longer enhanced CH-11-mediated killing”.
